Laboratory results from patent US20260097047A1, “Small molecule inhibitors of the ribosome biogenesis factor NVL2” (Board of Regents, The University of Texas System, priority 2023, published 2026).
Read-outs that look alike come from different tables or passages of the source.

Tested on: HCT116 cells
Assay: Cell viability assay (CellTiter-Glo, 72 hours) in HCT116 human colorectal cancer cells
Format: cell-based
In short: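 Ten-point IC50 came from an asymmetric five-parameter fit of luminescence corrected to vehicle wells. ATP content was measured by CellTiter-Glo 72 h after dosing at 37 °C. Cells were seeded at 2,000/well the day before, with 0.5% DMSO in all wells.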

[1] = Table 9, HCT116, 72 hours, read-out: Activity
[2] = Homo sapiens, HCT-116, Table 9, HCT116, 72 hours, read-out: Activity
[3] = Homo sapiens, HCT-116, read-out: IC50s (cellular activity of MM017 derivatives)
[4] = Table 7, cell viability assay, CellTiter-Glo, 72 hours, scaffold drawing 42 with R^2, R^3, X/Y, Z, read-out: Activity

Row | SMILES | IC50 [1] | also measured
1 | CO[C@H]1C[C@H](C(=O)Nc2ccc3c(c2)C(C)(O)c2ccccc2C(=O)N3CC#CCl)C1 (stereo partly drawn) [Table 9: —CH2CCCl; trans-3-MeOcBu; CMeOH] | < 500 nM | –
2 | C#CCN1C(=O)c2ccccc2C(C#N)c2cc(NC(=O)C3CC(COC)C3)ccc21 (stereo not drawn) [Table 9: —CH2CCH; 3-MeOCH2-cBu; CHCN] | < 500 nM | –
3 | C#CCN1C(=O)c2ccccc2C(C#N)c2cc(NC(=O)[C@H]3C[C@@H](OC)C3)ccc21 (stereo partly drawn) [Table 9: —CH2CCH; cis-3-MeOcBu; CHCN] | < 500 nM | –
4 | C#CCN1C(=O)c2ccccc2C(C#N)c2cc(NC(=O)[C@H]3C[C@H](OC)C3)ccc21 (stereo partly drawn) [Table 9: —CH2CCH; trans-3-MeOcBu; CHCN] | < 500 nM | –
5 | CC#CCN1C(=O)c2ccccc2C(C)c2cc(NC(=O)C3CC(COC)C3)ccc21 (stereo not drawn) [Table 9: —CH2CCMe; 3-MeOCH2-cBu; CHMe] | < 500 nM | –
6 | CC#CCN1C(=O)c2ccccc2C(C)(O)c2cc(NC(=O)C3CC(COC)C3)ccc21 (stereo not drawn) [Table 9: —CH2CCMe; 3-MeOCH2-cBu; CMeOH] | < 500 nM | –
7 | CC#CCN1C(=O)c2ccccc2C(C#N)c2cc(NC(=O)c3ccc(OC)cc3)ccc21 (stereo not drawn) [Table 9: —CH2CCMe; 4-MeOPh; CHCN, N-(5-(But-2-yn-1-yl)-11-cyano-6-oxo-6,11-dihydro-5H-dibenzo[b,e]azepin-2-yl)-4-methoxybenzamide] | – | IC50 [2]: < 500 nM
8 | CC#CCN1C(=O)c2ccccc2C(C)c2cc(NC(=O)c3ccc(OC)cc3)ccc21 (stereo not drawn) [Table 9: —CH2CCMe; 4-MeOPh; CHMe, N-(5-(But-2-yn-1-yl)-11-methyl-6-oxo-6,11-dihydro-5H-dibenzo[b,e]azepin-2-yl)-4-methoxybenzamide] | – | IC50 [2]: < 500 nM
9 | CC#CCN1C(=O)c2ccccc2C(C)(O)c2cc(NC(=O)c3ccc(OC)cc3)ccc21 (stereo not drawn) [Table 9: —CH2CCMe; 4-MeOPh; CMeOH, N-(5-(But-2-yn-1-yl)-11-hydroxy-11-methyl-6-oxo-6,11-dihydro-5H-dibenzo[b,e]azepin-2-yl)-4-methoxybenzamide] | – | IC50 [2]: < 500 nM
10 | CC#CCN1C(=O)c2ccccc2C(C)c2cc(NC(=O)CCCO)ccc21 (stereo not drawn) [Table 9: —CH2CCMe; (CH2)3OH; CHMe] | < 500 nM | –
11 | CC#CCN1C(=O)c2ccccc2C(C)c2cc(NC(=O)CCCOC)ccc21 (stereo not drawn) [Table 9: —CH2CCMe; (CH2)3OMe; CHMe] | < 500 nM | –
12 | CC#CCN1C(=O)c2ccccc2Cc2cc(NC(=O)CC3COC3)ccc21 [Table 9: —CH2CCMe; (oxetan-3-yl)CH2; CH2] | < 500 nM | –
13 | CC#CCN1C(=O)c2ccccc2C(C)c2cc(NC(=O)C=CCO)ccc21 (stereo not drawn) [Table 9: —CH2CCMe; CH═CHCH2OH; CHMe] | < 500 nM | –
14 | CC#CCN1C(=O)c2ccccc2C(C)c2cc(NC(=O)C(C)CCOC)ccc21 (stereo not drawn) [Table 9: —CH2CCMe; MeO(CH2)2CHMe-; CHMe] | < 500 nM | –
15 | CC#CCN1C(=O)c2ccccc2C(C)c2cc(NC(=O)NCCOC)ccc21 (stereo not drawn) [Table 9: —CH2CCMe; NH(CH2)2OMe; CHMe] | < 500 nM | –
16 | CC#CCN1C(=O)c2ccccc2C(C)c2cc(NC(=O)OCCOC)ccc21 (stereo not drawn) [Table 9: —CH2CCMe; O(CH2)2OMe; CHMe] | < 500 nM | –
17 | CC#CCN1C(=O)c2ccccc2Cc2cc(NC(=O)[C@H]3C[C@@H](OC)C3)ccc21 [Table 9: —CH2CCMe; cis-3-MeOcBu; CH2] | < 500 nM | –
18 | CC#CCN1C(=O)c2ccccc2C(C)c2cc(NC(=O)[C@H]3C[C@@H](OC)C3)ccc21 (stereo partly drawn) [Table 9: —CH2CCMe; cis-3-MeOcBu; CHMe] | < 500 nM | –
19 | CC#CCN1C(=O)c2ccccc2C(C)(O)c2cc(NC(=O)[C@H]3C[C@@H](OC)C3)ccc21 (stereo partly drawn) [Table 9: —CH2CCMe; cis-3-MeOcBu; CMeOH] | < 500 nM | –
20 | CC#CCN1C(=O)c2ccccc2C(C)c2cc(NC(=O)[C@H]3C[C@@H](O)C3)ccc21 (stereo partly drawn) [Table 9: —CH2CCMe; cis-3-OH-cBu; CHMe] | < 500 nM | –
21 | CC#CCN1C(=O)c2ccccc2C(C)c2cc(NC(=O)C3COC3)ccc21 (stereo not drawn) [Table 9: —CH2CCMe; oxetan-3-yl; CHMe] | < 500 nM | –

Row | SMILES | IC50 [1] | also measured
22 | CC#CCN1C(=O)c2ccccc2Cc2cc(NC(=O)[C@H]3C[C@H](OC)C3)ccc21 [Table 9: —CH2CCMe; trans-3-MeOcBu; CH2] | < 500 nM | –
23 | CC#CCN1C(=O)c2ccccc2C(C#N)c2cc(NC(=O)[C@H]3C[C@H](OC)C3)ccc21 (stereo partly drawn) [Table 9: —CH2CCMe; trans-3-MeOcBu; CHCN] | < 500 nM | –
24 | CC#CCN1C(=O)c2ccccc2C(C)(O)c2cc(NC(=O)[C@H]3C[C@H](OC)C3)ccc21 (stereo partly drawn) [Table 9: —CH2CCMe; trans-3-MeOcBu; CMeOH] | < 500 nM | –
25 | CC#CCN1C(=O)c2ccccc2C(C)c2cc(NC(=O)[C@H]3C[C@H](O)C3)ccc21 (stereo partly drawn) [Table 9: —CH2CCMe; trans-3-OH-cBu; CHMe] | < 500 nM | –
26 | CC1c2ccccc2C(=O)N(CC#CC2CC2)c2ccc(NC(=O)C=CCO)cc21 (stereo not drawn) [Table 9: —CH2CC^cPr; CH═CHCH2OH; CHMe] | < 500 nM | –
27 | COCC=CC(=O)Nc1ccc2c(c1)C(C)c1ccccc1C(=O)N2CC#CC1CC1 (stereo not drawn) [Table 9: —CH2CC^cPr; CH═CHCH2OMe; CHMe] | < 500 nM | –
28 | COCCNC(=O)Nc1ccc2c(c1)C(C)c1ccccc1C(=O)N2CC#CC1CC1 (stereo not drawn) [Table 9: —CH2CC^cPr; NH(CH2)2OMe; CHMe] | < 500 nM | –
29 | CC1c2ccccc2C(=O)N(CC#CC2CC2)c2ccc(NC(=O)C3CC(O)C3)cc21 (stereo not drawn) [Table 9: —CH2CC^cPr; cis-3-OH-cBu; CHMe] | < 500 nM | –
30 | CC1c2ccccc2C(=O)N(CC#CC2CC2)c2ccc(NC(=O)C3COC3)cc21 (stereo not drawn) [Table 9: —CH2CC^cPr; oxetan-3-yl; CHMe] | < 500 nM | –
31 | COCC1CC(C(=O)Nc2ccc3c(c2)C(C#N)c2ccccc2C(=O)N3CC#CC2CC2)C1 (stereo not drawn) [Table 9: —CH2CCcPr; 3-MeOCH2-cBu; CHCN] | < 500 nM | –
32 | COCC1CC(C(=O)Nc2ccc3c(c2)C(C)(O)c2ccccc2C(=O)N3CC#CC2CC2)C1 (stereo not drawn) [Table 9: —CH2CCcPr; 3-MeOCH2-cBu; CMeOH] | < 500 nM | –
33 | CO[C@H]1C[C@@H](C(=O)Nc2ccc3c(c2)C(C)(O)c2ccccc2C(=O)N3CC#CC2CC2)C1 (stereo partly drawn) [Table 9: —CH2CCcPr; cis-3-MeOcBu; CMeOH] | < 500 nM | –
34 | COC1CC(C(=O)Nc2ccc3c(c2)C(C#N)c2ccccc2C(=O)N3CC#CC2CC2)C1 (stereo not drawn) [Table 9: —CH2CC°Pr; trans-3-MeOcBu; CHCN] | < 500 nM | –
35 | CO[C@H]1C[C@@H](C(=O)Nc2ccc3c(c2)C(C#N)c2ccccc2C(=O)N3CC#CC2CC2)C1 (stereo partly drawn) [Table 9: —CH2CCºPr; cis-3-MeOcBu; CHCN] | < 500 nM | –
36 | COCCN1C(=O)c2ccccc2Sc2cc(NC(=O)c3ccc(OC(F)(F)F)cc3)ccc21 [compound 4] | – | IC50 [3]: 2100 nM
37 | COCCN1C(=O)c2ccccc2Sc2cc(NC(=O)c3ccccc3OC)ccc21 [compound 5] | – | IC50 [3]: 13000 nM
38 | C#CCOCCN1C(=O)c2ccccc2Sc2cc(NC(=O)c3cccc(CCC#N)c3)ccc21 [—(CH2)2OCH2CCH; 3-(2′-CNEt)Ph; CH/CH; S] | – | IC50 [4]: < 500 nM
39 | C#CCOCCN1C(=O)c2ccccc2Sc2cc(NC(=O)c3ccc(OC)c(F)c3)ccc21 [—(CH2)2OCH2CCH; 3-F,4-MeOPh; CH/CH; S] | – | IC50 [4]: 1000 to 5000 nM
40 | C#CCOCCN1C(=O)c2ccccc2Cc2cc(NC(=O)c3ccc(OC)cc3)ccc21 [—(CH2)2OCH2CCH; 4-MeOPh; CH/CH; CH2] | – | IC50 [4]: < 500 nM
41 | C#CCOCCN1C(=O)c2ccccc2Sc2cc(NC(=O)c3ccc(OC)cc3)ccc21 [—(CH2)2OCH2CCH; 4-MeOPh; CH/CH; S] | – | IC50 [4]: < 500 nM
42 | C#CCOCCN1C(=O)c2ccccc2Sc2cc(NC(=O)c3ccc(N=[N+]=[N-])cc3)ccc21 [—(CH2)2OCH2CCH; 4-N3Ph; CH/CH; S] | – | IC50 [4]: < 500 nM
